Measurements: article PMC4013053, “Identification of Selective Small Molecule Inhibitors of the Nucleotide-Binding Oligomerization Domain 1 (NOD1) Signaling Pathway” (PLoS ONE, 2014)
≈ marks a conversion by molar mass, not a printed value. Like-named read-outs stand apart in the source and are kept apart here.

Tests used:
NOD1 [1] = system: NOD1; parameters: method as in PMID 22062585; conditions: read-out: NOD1 IC50 (nucleotide binding); cited from earlier work
NOD2 = system: NOD2; parameters: method as in PMID 22549783; conditions: read-out: NOD2 IC50 (nucleotide binding); cited from earlier work
NOD1 [2] = target: T1, NOD1 (Homo sapiens, UniProt Q9Y239); assay: iE-DAP-stimulated IL-8 release in 293/hNOD1 cells; format: cell-based
T1 sequence (Q9Y239 1-953): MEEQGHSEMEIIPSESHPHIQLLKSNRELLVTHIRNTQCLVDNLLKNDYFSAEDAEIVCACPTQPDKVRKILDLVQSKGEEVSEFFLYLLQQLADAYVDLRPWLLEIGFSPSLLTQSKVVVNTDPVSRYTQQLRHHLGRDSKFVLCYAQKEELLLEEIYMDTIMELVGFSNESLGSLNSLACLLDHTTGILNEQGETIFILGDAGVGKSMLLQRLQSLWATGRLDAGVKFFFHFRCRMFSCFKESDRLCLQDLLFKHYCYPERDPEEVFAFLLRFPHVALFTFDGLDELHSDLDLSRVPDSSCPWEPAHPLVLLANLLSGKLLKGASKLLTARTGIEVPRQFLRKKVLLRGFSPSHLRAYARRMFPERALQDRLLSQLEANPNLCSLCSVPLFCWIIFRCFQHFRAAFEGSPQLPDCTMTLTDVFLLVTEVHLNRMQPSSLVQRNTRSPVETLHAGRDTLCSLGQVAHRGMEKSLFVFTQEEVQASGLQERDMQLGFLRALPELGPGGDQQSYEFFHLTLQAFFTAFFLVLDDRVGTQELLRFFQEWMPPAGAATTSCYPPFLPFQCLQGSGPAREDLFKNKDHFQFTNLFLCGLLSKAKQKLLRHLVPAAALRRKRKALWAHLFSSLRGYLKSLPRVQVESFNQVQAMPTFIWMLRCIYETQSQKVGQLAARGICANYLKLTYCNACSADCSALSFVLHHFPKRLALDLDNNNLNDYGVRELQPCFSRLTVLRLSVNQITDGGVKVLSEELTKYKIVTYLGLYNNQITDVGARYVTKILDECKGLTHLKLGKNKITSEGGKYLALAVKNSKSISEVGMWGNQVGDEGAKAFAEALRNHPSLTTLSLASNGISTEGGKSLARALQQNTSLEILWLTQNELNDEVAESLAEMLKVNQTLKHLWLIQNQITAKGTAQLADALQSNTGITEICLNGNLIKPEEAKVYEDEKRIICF
Description: Inhibitors of iE-DAP-stimulated IL-8 release were screened in a 1536-well assay in which 293/hNOD1 cells (5000 cells/well) in DMEM high glucose medium supplemented with 0.1% FBS and 10 µg/mL Blasticidin S were stimulated with 60 ng/mL (200 nM) iE-DAP (EC80) in the presence of 10 µM compounds. After 24 hours the amount of IL-8 secreted into the medium was determined by homogeneous time resolved fluorescence (HTRF) assay by the direct addition of a 1∶1 mix of europium cryptate and XL665-conjugated anti-IL-8 antibodies according to the manufacturer’s instructions (Cisbio). Fluorescence was measured after 2 hours in a ViewLux imager using UMB-AMC excitation and 618–671 nm emission filters (Perkin Elmer). […] Inhibition of TNFR1-induced IL-8 release was performed with 293/hNOD1 cells stimulated with 20 ng/mL (∼EC95) rhTNFα.
A high-throughput screen of about 2.2 million compounds was conducted for inhibitors of the NOD1 signaling pathway using suppression of iE-DAP stimulated IL-8 secretion in HEK293 cells stably expressing human NOD1 (293/hNOD1 cells). […] These assays were chosen to assess the selectivity of hits because the signaling pathways activated by these receptors converge at the level of the TAB/TAK1/IKK complex.

CLND solubility = format: physicochemical; conditions: phosphate buffered saline with 5% DMSO, pH 7.4, aqueous buffer, kinetic from dmso stock; 5% DMSO pH7.4 phosphate buffered saline
Source text: (§1) Physicochemical analyses of compounds were completed at GSK.

[3] = Chromatographic hydrophobicity index (Chrom log D); format: physicochemical; conditions: pH 7.4
Source text: as §1

[4] = Permeability across an artificial membrane; format: in vitro ADME; conditions: PAMPA
Source text: as §1

human serum albumin = human serum albumin (Homo sapiens, UniProt P02768); assay: Human serum albumin (HSA) binding; format: in vitro ADME
human serum albumin, sequence (P02768 25-609): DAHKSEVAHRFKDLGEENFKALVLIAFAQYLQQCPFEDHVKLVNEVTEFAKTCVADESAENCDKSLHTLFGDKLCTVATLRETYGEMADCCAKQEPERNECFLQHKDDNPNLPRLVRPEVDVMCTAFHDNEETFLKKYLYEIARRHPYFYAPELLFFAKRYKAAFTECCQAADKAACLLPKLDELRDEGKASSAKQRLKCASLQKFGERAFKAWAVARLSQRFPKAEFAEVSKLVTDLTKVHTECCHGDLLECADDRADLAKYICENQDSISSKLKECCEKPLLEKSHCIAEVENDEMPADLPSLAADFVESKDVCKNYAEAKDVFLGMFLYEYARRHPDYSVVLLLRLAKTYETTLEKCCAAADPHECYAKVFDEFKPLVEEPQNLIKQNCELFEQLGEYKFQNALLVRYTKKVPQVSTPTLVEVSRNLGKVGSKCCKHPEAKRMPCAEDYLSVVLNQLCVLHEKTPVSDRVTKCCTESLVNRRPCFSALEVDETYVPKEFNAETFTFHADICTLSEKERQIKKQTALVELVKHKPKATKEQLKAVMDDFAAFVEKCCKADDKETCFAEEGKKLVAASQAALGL
Source text: as §1

α1-acid glycoprotein = α1-acid glycoprotein (AGP) binding; format: in vitro ADME
Source text: as §1

[5] = Immobilized artificial membrane (IAM) binding; format: physicochemical
Source text: as §1

[6] = system: NOD1 induced NF-κB and MAPK pathways; assay: Western blotting of IκBα and phospho-MAPKs in Tri-DAP stimulated 293/hNOD1 cells; format: cell-based, human; conditions: 50 µg/mL Tri-DAP 1 hour, immunoblotting
Description: Confluent cultures of 293/hNOD1 and -hNOD2 cells seeded in 24-well plates were serum-starved over-night, pre-incubated for 1 hour with compound and then stimulated for 1 hour with either 50 µg/mL Tri-DAP or 25 µg/mL MDP, respectively. Whole cell lysates were prepared in 1X cell lysis buffer (Cell Signaling Technology) supplemented with additional protease, aminopeptidase and phosphatase inhibitors (protease inhibitor cocktail set III, EMD Biosciences; phosphatase inhibitor sets II and III, Sigma-Aldrich). The levels of phosphorylated and total p38, JNK, ERK1/2 and total IκBα were determined by immunoblotting of ∼20 µg protein per sample using the following primary antibodies: phospho-p38 MAPK (12F8, #4631), p38 MAPK (#9212), phospho-JNK (#9251), JNK (#9252) and IκBα (#9242) all purchased from Cell Signaling Technology, and phospho-ERK1/2 (sc-7383) and ERK1/2 (sc-94) antibodies from Santa Cruz Biotechnology.

NOD1 [7] = conditions: HEK293T cells, read-out: IC50 NF-κB reporter, cited from earlier work
[8] = iE-DAP-stimulated IL-8 production in 293/hNOD1 cells, SAR figures, read-out: NOD1 XC50
[9] = HEK293 stably expressing human NOD1, IL-8 released into medium, read-out: IC50 293/hNOD1 iE-DAP

SMILES: Nc1ncnc2c1ncn2[C@@H]1O[C@H](COP(=O)(O)OP(=O)(O)OP(=O)(O)O)[C@@H](O)[C@H]1O [ATP]
- IC50 (NOD1 [1]): ~15 nM
- IC50 (NOD2): ~60 nM

SMILES: Cn1c(=O)[nH]c(=O)c2c1nc(SCCc1ccccc1)n2Cc1ccccc1 [Compound 1]
- IC50 (NOD1 [2]; [8]): 400 ± 80 nM

SMILES: Cn1c(=O)[nH]c(=O)c2c1nc(CCCSc1ccccc1)n2Cc1ccccc1 [Compound 2]
- IC50 (NOD1 [2]; [8]): 2500 ± 1300 nM

SMILES: CCCCCCSc1nc2c(c(=O)[nH]c(=O)n2C)n1Cc1ccccc1 [Compound 3]
- IC50 (NOD1 [2]; [8]): 4700 ± 1400 nM

SMILES: Cn1c(=O)[nH]c(=O)c2c1nc(SCCCc1ccccc1)n2Cc1ccccc1 [Compound 4]
- IC50 (NOD1 [2]; [8]): 8700 ± 1500 nM

SMILES: Cc1cccc(CSc2nc3c(c(=O)[nH]c(=O)n3C)n2Cc2ccccc2)c1 [Compound 5]
- IC50 (NOD1 [2]; [8]): 8900 ± 1600 nM

SMILES: C/C=C/Cn1c(SCCc2ccccc2)nc2c1c(=O)[nH]c(=O)n2C [Compound 6]
- IC50 (NOD1 [2]; [8]): 9600 ± 2800 nM

SMILES: Cn1c(=O)[nH]c(=O)c2c1nc(SCc1ccccc1)n2Cc1ccccc1 [Compound 7]
- IC50 (NOD1 [2]; [8]): 37300 ± 18100 nM

SMILES: Cc1nc2ccccc2c(=O)n1-c1ccc(F)c(NS(=O)(=O)c2ccccc2F)c1 [Compound 8]
- IC50 (NOD1 [2]; [9]): 700 nM
- solubility (CLND solubility): 391 µM (≈ 167 µg/mL)
- chromatographic logD [3]: 3.24
- Papp [4]: 35 ×10⁻⁶ cm/s
- HSA binding (human serum albumin): 96.05%
- AGP binding (α1-acid glycoprotein): 80.38%
- IAM binding [5]: 1.42 log K

SMILES: Cc1nc2ccccc2c(=O)n1-c1ccc(F)c(NS(=O)(=O)c2ccc(Cl)s2)c1 [Compound 9]
- IC50 (NOD1 [2]; [9]): 700 nM
- effect on Tri-DAP induced p-JNK, p-p38 and IκBα responses [6]: reduced both phospho-JNK and the weaker phospho-p38 levels while levels of IκBα were increased

SMILES: Cc1nc2ccccc2c(=O)n1-c1ccc(F)c(NS(=O)(=O)c2ccc(F)cc2F)c1 [Compound 10]
- IC50 (NOD1 [2]; [8]): 2200 ± 3300 nM

SMILES: Cc1ccc(S(=O)(=O)Nc2cc(-n3c(C)nc4ccccc4c3=O)ccc2F)cc1C [Compound 11]
- IC50 (NOD1 [2]; [8]): 1100 ± 700 nM

SMILES: Cc1nc2ccccc2c(=O)n1-c1ccc(F)c(NS(=O)(=O)c2cc(Cl)ccc2Cl)c1 [Compound 12]
- IC50 (NOD1 [2]; [8]): 1200 ± 100 nM

SMILES: Cc1nc2ccccc2c(=O)n1-c1ccc(F)c(NS(=O)(=O)c2cccs2)c1 [Compound 13]
- IC50 (NOD1 [2]; [8]): 2300 ± 1700 nM
- solubility (CLND solubility): 423 µM (≈ 176 µg/mL)
- chromatographic logD [3]: 2.87
- Papp [4]: 26 ×10⁻⁶ cm/s
- HSA binding (human serum albumin): 96.08%
- AGP binding (α1-acid glycoprotein): 81.23%
- IAM binding [5]: 1.36 log K

SMILES: CCc1ccc(S(=O)(=O)Nc2cccc(-n3c(C)nc4ccccc4c3=O)c2)s1 [Compound 14]
- IC50 (NOD1 [2]; [9]): 15100 nM

SMILES: Cc1ccc(S(=O)(=O)Nc2cccc(C(=O)Nc3nc4ccc([N+](=O)[O-])cc4s3)c2)cc1 [Compound 15]
- IC50 (NOD1 [2]; [9]): 200 nM
- IC50 (NOD1 [2]; [8]): 190 ± 30 nM

SMILES: Cc1ccc(S(=O)(=O)Nc2cccc(C(=O)Nc3ccc4nc(C)sc4c3)c2)c(F)c1 [Compound 17]
- IC50 (NOD1 [2]; [8]): 760 ± 100 nM

SMILES: CC(=O)Nc1ccc2nc(NC(=O)c3cccc(NS(=O)(=O)c4ccc(C)cc4)c3)sc2c1 [Compound 18]
- IC50 (NOD1 [2]; [8]): 1400 ± 300 nM

SMILES: N#Cc1ccc(-c2csc(NC(=O)c3cccc(NS(=O)(=O)c4ccc(Cl)cc4)c3)n2)cc1 [Compound 19]
- IC50 (NOD1 [2]; [8]): 2000 ± 500 nM

SMILES: COc1ccc(S(=O)(=O)Nc2cccc(C(=O)Nc3ccc4nc(C)sc4c3)c2)cc1 [Compound 20]
- IC50 (NOD1 [2]; [8]): 2300 ± 800 nM

SMILES: O=C(Nc1ccc2c(c1)OCO2)c1cccc(NS(=O)(=O)c2ccc(Cl)cc2)c1 [Compound 21]
- IC50 (NOD1 [2]; [8]): 3700 ± 1400 nM
- solubility (CLND solubility): 46 µM (≈ 19.8 µg/mL)
- chromatographic logD [3]: 5.17
- Papp [4]: 23 ×10⁻⁶ cm/s
- HSA binding (human serum albumin): 98.01%
- AGP binding (α1-acid glycoprotein): 87.41%
- IAM binding [5]: 2.40 log K

SMILES: Cc1nc2ccccc2c(=O)n1-c1ccc(Cl)c(NS(=O)(=O)c2ccc3c(c2)OCCO3)c1 [Compound 23]
- IC50 (NOD1 [2]; [8]): 100 ± 40 nM

SMILES: Cc1ccc(S(=O)(=O)Nc2cc(-n3c(C)nc4ccccc4c3=O)ccc2Cl)cc1 [Compound 24]
- IC50 (NOD1 [2]; [8]): 200 ± 200 nM

SMILES: COc1ccc(Cl)cc1S(=O)(=O)Nc1cc(-n2c(C)nc3ccccc3c2=O)ccc1Cl [Compound 25]
- IC50 (NOD1 [2]; [8]): 500 ± 100 nM

SMILES: Cc1nc2ccc(Cl)cc2c(=O)n1-c1ccc(Cl)c(NS(=O)(=O)c2ccccc2F)c1 [Compound 26, N-(2-chloro-5-(6-chloro-2-methyl-4-oxoquinazolin-3(4H)-yl)phenyl)-2-fluorobenzenesulfonamide]
- IC50 (NOD1 [2]; [8]): 26 nM

SMILES: Cc1nc2cc(Cl)ccc2c(=O)n1-c1ccc(Cl)c(NS(=O)(=O)c2ccccc2F)c1 [Compound 27, N-(2-chloro-5-(7-chloro-2-methyl-4-oxoquinazolin-3(4H)-yl)phenyl)-2-fluorobenzenesulfonamide]
- IC50 (NOD1 [2]; [8]): 2500 ± 1200 nM

SMILES: Cc1nc(C)n(-c2ccc(Cl)c(NS(=O)(=O)c3ccccc3F)c2)c(=O)c1C [Compound 28, N-(2-chloro-5-(2,4,5-trimethyl-6-oxopyrimidin-1(6H)-yl)phenyl)-2-fluorobenzenesulfonamide]
- IC50 (NOD1 [2]; [8]): 3500 ± 500 nM

SMILES: Cc1cc(=O)n(-c2ccc(Cl)c(NS(=O)(=O)c3ccccc3F)c2)c(C)n1 [Compound 29, N-(2-chloro-5-(2,4-dimethyl-6-oxopyrimidin-1(6H)-yl)phenyl)-2-fluorobenzenesulfonamide]
- IC50 (NOD1 [2]; [8]): 25000 ± 17500 nM

SMILES: Cc1ccc(S(=O)(=O)n2c(N)nc3ccccc32)cc1 [ML130]
- IC50 (NOD1 [7]): 560 nM

SMILES: C/C=C/Cn1c(SCCCc2ccccc2)nc2c1c(=O)[nH]c(=O)n2C [ML146]
- IC50 (NOD1 [7]; ref Magnuson et al, 2010): 1500 nM
